Source: paper PMC10743905, “Design, Synthesis, and In Vitro and In Vivo Bioactivity Studies of Hydrazide–Hydrazones of 2,4-Dihydroxybenzoic Acid” (International Journal of Molecular Sciences, 2023)
≈ marks a conversion by molar mass, not a printed value. Where “and” joins values, the source holds several entries; their conditions need not be identical. Equal values may be shown once. Read-outs that look alike come from different tables or passages of the source.

What was measured:
[1] = system: reference Gram-positive bacteria; assay: Broth microdilution, summary over the Gram-positive panel; assay type: cell-based
Excerpt: In vitro antimicrobial activity assays - Methodology
The examined compounds 1 - 24 were screened in vitro for antibacterial and antifungal activities using the broth microdilution method according to procedure reported earlier by our research group and European Committee on Antimicrobial Susceptibility Testing (EUCAST) and Clinical and Laboratory Standards Institute (CLSI) guidelines against a panel of reference and clinical or saprophytic strains of microorganisms, in-cluding Gram-positive bacteria, Staphylococcus aureus ATCC 43300 (Methicillin Resistant S. aureus – MRSA), Staphylococcus aureus ATCC 29213 (Methicillin Susceptible S. aureus – MSSA), Staphylococcus epidermidis ATCC 12228, Enterococcus faecalis ATCC 29212, Micro-coccus luteus ATCC 10240, Bacillus subtilis ATCC 6633 and Bacillus cereus ATCC 10876), Gram-negative bacteria (Bordetella bronchiseptica ATCC 4617, Escherichia coli ATCC 25922, Klebsiella pneumoniae ATCC 13883, Proteus mirabilis ATCC 12453, Salmonella typhimurium ATCC 14028 and Pseudomonas aeruginosa ATCC 9027) and fungi belonging to yeasts (Can-dida albicans ATCC 10231, Candida albicans ATCC 2091, Candida parapsilosis ATCC 22019, Candida glabrata ATCC 90030 and Candida krusei ATCC 14243). The microorganisms be-longing to ATCC came from American Type Culture Collection, routinely used for the evaluation of antimicrobials. […]
Samples containing examined compounds were dissolved in dimethyl sulfoxide (DMSO). […]
Subsequently, the MIC (Minimal Inhibitory Concentration) of the compounds was ex-amined by the microdilution broth method, using their two-fold dilutions in Mueller- […]
Hinton broth or (for bacteria) and RPMI 1640 broth with MOPS (for fungi) prepared in 96-well polystyrene plates. Final concentrations of the compounds ranged from 1000 to 0.488 µg/ml. Microbial suspensions were prepared in 0.85% NaCl with an optical density of 0.5 McFarland standard. Next each bacterial or fungal suspension was added per each well containing broth and various concentrations of the examined compounds. After incuba-

[2] = in vivo; settings: in vivo
Description: Wild-type AB strain zebrafish (Danio rerio) were housed in the Experimental Medicine Centre of Medical University of Lublin (Lublin, Poland), where all the experimental procedures on embryos and larvae were carried out. The animals were kept on a recirculating water supply at 26 ± 1 °C and a 10/14 dark–light cycle, and they were fed with artemia and commercial feed. Danio rerio embryos were obtained from females between 4 and 15 months of age. […] In order to avoid genetic bias in the study, eggs were randomly collected from at least three breeding groups, rinsed, and placed in Petri dishes in the cultured medium, which for Danio rerio is E3 solution. […] In accordance with the legislation of the European Union and Poland, the experiments performed on the earliest life-stages of Danio rerio until 120 h post-fertilization (120 hpf), not defined as protected, are not subject to regulations for animal experimentation.
They address the testing of chemicals using the Fish Embryo Acute Toxicity (FET) test with the species Danio rerio.
Immediately after fertilization, eggs were placed in sterile 24-well plates and exposed for 96 h to at least five concentrations of the test chemical, ranging from 1 to 500 µM and prepared ex tempore on each day of exposure, according to the principle of one egg per well and one concentration per plate. In each plate, 20 wells were filled with the solutions of the tested substance, and 4 wells of the last column were a negative internal control with E3 medium. Each well was filled with 2 mL of solution. Positive control plates were also prepared according to this scheme with 4 mg/L of 3,4-dichloroaniline (Sigma-Aldrich, Poznań, Poland) and a negative control with E3, and a negative solvent control with 1% DMSO, which was used as a solvent for the tested substances. At four time points, microscopic observations were made every 24 h. As indicators of mortality (so-called terminal observations; when at least one of these occurs, embryonic death is declared), the following were recorded: the coagulation of embryos, a lack of somite formation, a lack of detachment of the tail from the yolk sac and a lack of a heartbeat, which was observed from the 48th hour of the study. To confirm the absence of a heartbeat, a microscopic observation was conducted at 80× magnification for one minute. Then, the solutions of the tested chemicals, to maintain their constant composition throughout the test, were replaced with fresh ones, and the plates were incubated for another 24 h in an incubator at 26 ± 1 °C. […] In addition, a quantitative and qualitative summary of the morphological and physiological abnormalities that occurred in the tested Danio rerio embryos and larvae was also made. These included yolk sac edema, pericardial edema, spinal flexure, head deformities, tail deformities, developmental delay defined as a lack of hatching success for 96 hpf larvae, and also bradycardia.
Regression analysis was performed with Excel, and the above-mentioned values were obtained from the linear type of regression analysis. […] The results obtained from the heart rate study of 96 hpf zebrafish larvae were subjected to statistical analysis using one-way analysis of variance (ANOVA) and a post hoc Bonferroni test. The significance level was taken as p < 0.05.

Structure (SMILES): CCCc1ccc(/C=N/NC(=O)c2ccc(O)cc2O)cc1 [Compound 13, 2,4-dihydroxy-N-[(4-propylphenyl)methylidene]benzohydrazide]
- MBC [1]: > 1000 µg/mL
- MIC ([1]; read-out: MIC): 1000 µg/mL (≈ 3350 µM)
- melting point: 197 °C

Structure (SMILES): O=C(N/N=C/c1cc(I)cc(I)c1O)c1ccc(O)cc1O [Compound 18, 2,4-dihydroxy-N-[(2-hydroxy-3,5-diiodophenyl)methylidene]benzohydrazide]
- MBC [1]: 1.95 to 31.2 µg/mL (≈ 3.72 to 59.6 µM)
- MIC ([1]; read-out: MIC): 0.48 to 7.81 µg/mL (≈ 0.916 to 14.9 µM)
- melting point: 220 °C

Structure (SMILES): O=C(N/N=C/c1ccccc1[N+](=O)[O-])c1ccc(O)cc1O [Compound 19, 2,4-dihydroxy-N-[(2-nitrophenyl)methylidene]benzohydrazide]
- MIC [1]: 250 to 1000 µg/mL (≈ 830 to 3320 µM)

Structure (SMILES): O=C(N/N=C/c1cccc([N+](=O)[O-])c1)c1ccc(O)cc1O [Compound 20, 2,4-dihydroxy-N-[(3-nitrophenyl)methylidene]benzohydrazide]
- LC50 at 96 h [2]: 34.8 mM and 10500 µg/mL

Structure (SMILES): O=C(N/N=C/c1ccc([N+](=O)[O-])cc1)c1ccc(O)cc1O [Compound 21, 2,4-dihydroxy-N-[(4-nitrophenyl)methylidene]benzohydrazide]
- MIC [1]: 500 to 1000 µg/mL (≈ 1660 to 3320 µM)
- LC50 at 96 h [2]: 370 µM and 110 µg/mL

Structure (SMILES): O=C(N/N=C/c1ccccc1Cl)c1ccc(O)cc1O [Compound 22, N-[(2-chlorophenyl)methylidene]-2,4-dihydroxybenzohydrazide]
- LC50 at 96 h [2]: 56.6 µM and 16.4 µg/mL

Structure (SMILES): O=C(N/N=C/c1ccccc1Br)c1ccc(O)cc1O [Compound 23, N-[(2-bromophenyl)methylidene]-2,4-dihydroxybenzohydrazide]
- LC50 at 96 h [2]: 85.6 µM and 30.4 µg/mL

Structure (SMILES): O=C(N/N=C/c1ccccc1F)c1ccc(O)cc1O [Compound 24, N-[(2-fluorophenyl)methylidene]-2,4-dihydroxybenzohydrazide]
- LC50 at 96 h [2]: 4.24 mM and 1160 µg/mL
